Measurements reported in US10363239B2, “Method for inhibiting growth of cancer cells” (Pain Therapeutics, Inc., priority 2013, dated 2019).
Read-outs that look alike come from different tables or passages of the source.

How the values were obtained:
[1] = biological target: FLNA pentapeptide of SEQ ID NO: 1 (Bn-VAKGL) (Homo sapiens, UniProt P21333); test: FITC-NLX-based FLNA screening assay (inhibition of FITC-naloxone binding to Bn-VAKGL on streptavidin plates); details: 10 nM FITC-NLX
mu opiate receptor (MOR) = test: MOR agonist activity using [35S]GTPγS binding assay in striatal membranes; type: biochemical; details: for MOR agonist activity ([35S]GTPγS binding), FLNA-Binding Compound as Agonist 1 μM + BFNA: 1 μM compound + 1 μM β-funaltrexamine
In short: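 Striatal membranes (200 μg) were preincubated 5 min at 30 °C in HEPES pH 7.5 with 100 mM NaCl, 1 mM MgCl2 and 0.5 nM [35S]GTPγS, then 5 min more with 0.1–10 μM compound. Gαo was immunoprecipitated and bound radioactivity counted by scintillation.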

[2] = FLNA-binding compound 0.01 μM, read-out: Percent Binding Inhibition
[3] = FLNA-binding compound 0.1 μM, read-out: Percent Binding Inhibition
[4] = FLNA-binding compound 1 μM, read-out: Percent Binding Inhibition
[5] = Series C-2, 0.1 μM compound, relative to DAMGO
[6] = Series C-2, 0.1 μM compound, [35S]GTPγS binding to Gαo, striatal membranes
[7] = Series C-2, 1 μM compound + 1 μM β-FNA
[8] = Series C-2, 1 μM compound + β-FNA, relative to DAMGO + BFNA
[9] = Series C-2, 1 μM compound, relative to DAMGO
[10] = Series C-2, 1 μM compound, [35S]GTPγS binding to Gαo, striatal membranes
[11] = 0.1 μM compound relative to DAMGO
[12] = 1 μM compound + BFNA relative to DAMGO + BFNA
[13] = 1 μM compound relative to DAMGO
[14] = read-out: Percent Binding Inhibition, FLNA-binding compound 0.01 μM
[15] = read-out: Percent Binding Inhibition, FLNA-binding compound 0.1 μM
[16] = read-out: Percent Binding Inhibition, FLNA-binding compound 1 μM
[17] = Series B, 0.1 μM compound, relative to DAMGO
[18] = Series B, 0.1 μM compound, [35S]GTPγS binding to Gαo, striatal membranes
[19] = Series B, 1 μM compound + 1 μM β-FNA
[20] = Series B, 1 μM compound + β-FNA, relative to DAMGO + BFNA
[21] = Series B, 1 μM compound, relative to DAMGO
[22] = Series B, 1 μM compound, [35S]GTPγS binding to Gαo, striatal membranes
[23] = Series C-1, 0.1 μM compound, relative to DAMGO
[24] = Series C-1, 0.1 μM compound, [35S]GTPγS binding to Gαo, striatal membranes
[25] = Series C-1, 1 μM compound + 1 μM β-FNA
[26] = Series C-1, 1 μM compound + β-FNA, relative to DAMGO + BFNA
[27] = Series C-1, 1 μM compound, relative to DAMGO
[28] = Series C-1, 1 μM compound, [35S]GTPγS binding to Gαo, striatal membranes

Compound | inhibition at 0.01 µM [1, 2] [%] | inhibition at 0.1 µM [1, 3] [%] | inhibition at 1 µM [1, 4] [%] | % DAMGO (0.1 μM) (mu opiate receptor (MOR); [5]) [%] | MOR agonist activity, percent [35S]GTPγS binding at the stated compound concentration (mu opiate receptor (MOR); [6]) [%] | MOR agonist activity, percent [35S]GTPγS binding at the stated compound concentration (mu opiate receptor (MOR); [7]) [%] | % DAMGO + BFNA (mu opiate receptor (MOR); [8]) [%] | % DAMGO (1 μM) (mu opiate receptor (MOR); [9]) [%] | MOR agonist activity, percent [35S]GTPγS binding at the stated compound concentration (mu opiate receptor (MOR); [10]) [%] | inhibition at 0.01 µM [1, 14] [%] | inhibition at 0.1 µM [1, 15] [%] | inhibition at 1 µM [1, 16] [%] | further results
CC(=O)N1CCSC12CCN(S(=O)(=O)c1ccc([N+](=O)[O-])cc1)CC2 [Compound C0050] | 26.7 | 34.5 | 36.4 | 76.1 | 110.3 | 59.0 | 134.1 | 54.8 | 127.6 |  |  |  | 
CC1CCC(C(C)C)C(OCC(O)CN2CC(C)OC(C)C2)C1 (stereo not drawn) [Compound A0032-1] | 35.6 | 43.9 | 50 |  |  |  |  |  |  |  |  |  | MOR agonist activity ([35S]GTPγS binding), FLNA-Binding Compound as Agonist 0.1 μM (mu opiate receptor (MOR); 0.1 μM compound): 187.4%; % DAMGO (0.1 μM) (mu opiate receptor (MOR); [11]): 95.5%; MOR agonist activity ([35S]GTPγS binding), FLNA-Binding Compound as Agonist 1 μM (mu opiate receptor (MOR); 1 μM compound): 324.5%; MOR agonist activity ([35S]GTPγS binding), FLNA-Binding Compound as Agonist 1 μM + BFNA (mu opiate receptor (MOR)): 224.5%; % DAMGO + BFNA (mu opiate receptor (MOR); [12]): 303.8%; % DAMGO (1 μM) (mu opiate receptor (MOR); [13]): 117.6%
COCOc1ccc(C(=O)CC2c3c(cc4c(c3OC)OCO4)CC[N+]2(C)C)cc1C (stereo not drawn) [Compound B0041] |  |  |  |  |  |  |  |  |  | 44 | 46.8 | 52.8 | % DAMGO (0.1 μM) (mu opiate receptor (MOR); [17]): 39.3%; MOR agonist activity, percent [35S]GTPγS binding at the stated compound concentration (mu opiate receptor (MOR); [18]): 61.6%; MOR agonist activity, percent [35S]GTPγS binding at the stated compound concentration (mu opiate receptor (MOR); [19]): 41.9%; % DAMGO + BFNA (mu opiate receptor (MOR); [20]): 128.5%; % DAMGO (1 μM) (mu opiate receptor (MOR); [21]): 47.2%; MOR agonist activity, percent [35S]GTPγS binding at the stated compound concentration (mu opiate receptor (MOR); [22]): 109.3%
OC(COc1ccc(Br)c(F)c1)CN1CCc2ccccc2C1 (stereo not drawn) [Compound A0057] | 29.1 | 37 | 43.4 |  |  |  |  |  |  |  |  |  | MOR agonist activity ([35S]GTPγS binding), FLNA-Binding Compound as Agonist 0.1 μM (mu opiate receptor (MOR); 0.1 μM compound): 124.2%; % DAMGO (0.1 μM) (mu opiate receptor (MOR); [11]): 79.6%; MOR agonist activity ([35S]GTPγS binding), FLNA-Binding Compound as Agonist 1 μM (mu opiate receptor (MOR); 1 μM compound): 192.1%; MOR agonist activity ([35S]GTPγS binding), FLNA-Binding Compound as Agonist 1 μM + BFNA (mu opiate receptor (MOR)): 44.8%; % DAMGO + BFNA (mu opiate receptor (MOR); [12]): 112.3%; % DAMGO (1 μM) (mu opiate receptor (MOR); [13]): 83.3%
COc1ccc(S(=O)(=O)N2CCC3(CC2)OCCN3S(=O)(=O)c2ccc(OC)c(OC)c2)cc1OC [Compound C0049] | 25.3 | 27.9 | 30.3 |  |  |  |  |  |  |  |  |  | % DAMGO (0.1 μM) (mu opiate receptor (MOR); [23]): 73.5%; Concentration of FLNA-Binding Compound as Agonist 0.1 μM (mu opiate receptor (MOR); [24]): 106.6%; Concentration of FLNA-Binding Compound as Agonist 1 μM + BFNA (mu opiate receptor (MOR); [25]): 81.0%; % DAMGO + BFNA (mu opiate receptor (MOR); [26]): 184.1%; % DAMGO (1 μM) (mu opiate receptor (MOR); [27]): 90.1%; Concentration of FLNA-Binding Compound as Agonist 1 μM (mu opiate receptor (MOR); [28]): 210.0%
COc1ccc(CCC(=O)CC2c3c(cc4c(c3OC)OCO4)CC[N+]2(C)C)cc1OC (stereo not drawn) [Compound B0042] |  |  |  |  |  |  |  |  |  | 40.8 | 46.4 | 51.6 | % DAMGO (0.1 μM) (mu opiate receptor (MOR); [17]): 39.6%; MOR agonist activity, percent [35S]GTPγS binding at the stated compound concentration (mu opiate receptor (MOR); [18]): 69.9%; MOR agonist activity, percent [35S]GTPγS binding at the stated compound concentration (mu opiate receptor (MOR); [19]): 43.1%; % DAMGO + BFNA (mu opiate receptor (MOR); [20]): 163.9%; % DAMGO (1 μM) (mu opiate receptor (MOR); [21]): 42.3%; MOR agonist activity, percent [35S]GTPγS binding at the stated compound concentration (mu opiate receptor (MOR); [22]): 107.5%
CC(=O)c1ccc(S(=O)(=O)N2CCC3(CC2)OCCN3S(=O)(=O)c2ccc(C(C)=O)cc2)cc1 [Compound C0011] |  |  |  | 126.8 | 217.0 | 19.0 | 36.5 | 114.3 | 305.0 | 37.6 | 41.4 | 46 | % DAMGO (0.1 μM) (mu opiate receptor (MOR); [23]): 126.8%; Concentration of FLNA-Binding Compound as Agonist 0.1 μM (mu opiate receptor (MOR); [24]): 217.0%; Concentration of FLNA-Binding Compound as Agonist 1 μM + BFNA (mu opiate receptor (MOR); [25]): 19.0%; % DAMGO + BFNA (mu opiate receptor (MOR); [26]): 36.5%; % DAMGO (1 μM) (mu opiate receptor (MOR); [27]): 114.3%; Concentration of FLNA-Binding Compound as Agonist 1 μM (mu opiate receptor (MOR); [28]): 305.0%
O=C1CN(Cc2ccccc2)C2(CCN(CC3CC3)CC2)N1 [Compound C0125M] |  |  |  | 89.1 | 168.6 | 159.7 | 329.3 | 78.6 | 195.2 | 54.2 | 59.7 | 63.3 | 
